Like-named read-outs stand apart in the source and are kept apart here. Starred links: 1 amine or outer side, 2 acyl side, 3 side chain; linkers in the order of their positions; H or OH if unused. Positions of bridges follow the written chain, without caps; N, C: chain ends. Residues, ends and D or L forms follow the SMILES beside them. Groups on a side chain read outwards from the residue. *: point of attachment. X1 = O=C(CCCCCCCCCCCCCCCc1nnn[nH]1)NS(=O)(=O)CCCC(=O)*; C20 diacid = O=C(O)CCCCCCCCCCCCCCCCCCC(=O)*; C18 diacid = O=C(O)CCCCCCCCCCCCCCCCC(=O)*; γGlu = O=C(O)[C@H](CCC(=O)[*:2])N[*:1]
Target: T1, Amylin 3(a) receptor (human calcitonin receptor (CTa) with RAMP-3) (Homo sapiens, UniProt O60896+P30988)
T1 construct: expressed in transfected cells; host or cells: BHK570 (baby hamster kidney) cells, stably transfected, with CRE-luciferase reporter
Assay: Amylin luciferase assay (CRE-luciferase reporter in BHK Amylin 3(a)//CRE-luc cells)
Format: cell-based
Outline: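 BHK570 cells stably expressing human calcitonin receptor (CTa), RAMP-3 and a CRE-luciferase reporter, about 20.000 cells/well, were exposed to standard or sample for 4 h at 37° C in phenol-red-free DMEM with 10% FBS and 10 mM Hepes pH 7,4. Luminescence was read after 30 min with LucLite at room temperature.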

[1] = BHK570 cells with human calcitonin receptor (CTa), RAMP-3 and CRE-luciferase reporter, 4 hours incubation, read-out: Potency luciferase assay

T1 sequence (O60896 24-148): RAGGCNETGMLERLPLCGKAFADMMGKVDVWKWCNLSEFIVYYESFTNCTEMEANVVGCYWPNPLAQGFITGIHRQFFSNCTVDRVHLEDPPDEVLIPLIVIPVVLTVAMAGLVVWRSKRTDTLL
T1 sequence (P30988 25-474): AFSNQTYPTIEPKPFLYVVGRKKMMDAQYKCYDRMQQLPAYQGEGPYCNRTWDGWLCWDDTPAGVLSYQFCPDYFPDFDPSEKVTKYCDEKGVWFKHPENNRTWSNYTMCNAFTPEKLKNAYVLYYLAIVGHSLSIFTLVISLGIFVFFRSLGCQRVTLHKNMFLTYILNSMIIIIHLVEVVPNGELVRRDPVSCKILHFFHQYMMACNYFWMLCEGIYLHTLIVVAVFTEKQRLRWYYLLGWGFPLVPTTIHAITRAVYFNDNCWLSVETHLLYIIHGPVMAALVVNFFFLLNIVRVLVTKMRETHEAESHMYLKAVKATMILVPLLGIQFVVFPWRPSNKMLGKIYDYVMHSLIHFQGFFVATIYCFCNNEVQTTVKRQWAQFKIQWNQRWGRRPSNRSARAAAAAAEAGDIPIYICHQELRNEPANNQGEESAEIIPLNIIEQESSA

Row | SMILES | EC50 [1] | EC50
1 | CC[C@H](C)[C@H](NC(=O)[C@@H]1CCCN1C(=O)CNC(=O)[C@H](Cc1ccccc1)NC(=O)[C@H](CC(N)=O)NC(=O)[C@H](CC(N)=O)NC(=O)[C@H](CO)NC(=O)[C@H](CO)NC(=O)[C@H](Cc1c[nH]cn1)NC(=O)[C@@H](NC(=O)[C@H](CC(C)C)NC(=O)[C@H](Cc1ccccc1)NC(=O)[C@H](CC(N)=O)NC(=O)[C@H](C)NC(=O)[C@H](CC(C)C)NC(=O)[C@H](CCCNC(=N)N)NC(=O)[C@H](CCC(N)=O)NC(=O)[C@@H](NC(=O)[C@H](C)NC(=O)[C@@H]1CSSC[C@H](NC(=O)[C@H](CCC(=O)O)NC(=O)[C@H](CCCNC(=N)N)NC(=O)[C@H](CCC(=O)O)NC(=O)[C@H](CCC(=O)O)NC(=O)CCCS(=O)(=O)NC(=O)CCCCCCCCCCCCCCCc2nnn[nH]2)C(=O)N[C@@H](CC(N)=O)C(=O)N[C@@H]([C@@H](C)O)C(=O)N[C@@H](C)C(=O)N[C@@H]([C@@H](C)O)C(=O)N1)[C@@H](C)O)C(C)C)C(=O)N[C@@H](CC(C)C)C(=O)N1CCC[C@H]1C(=O)N1CCC[C@H]1C(=O)N[C@H](C(=O)N[C@@H](CC(N)=O)C(=O)N[C@H](C(=O)NCC(=O)N[C@@H](CO)C(=O)N[C@@H](CC(N)=O)C(=O)N[C@H](C(=O)N[C@@H](Cc1ccc(O)cc1)C(N)=O)[C@@H](C)O)C(C)C)[C@@H](C)O [Example 31, N-alpha-[4-(16-1H-tetrazol-5-yl-hexadecanoylsulfamoyl)-butyryl]-Glu-Glu-Arg-[Glu1]pramlintide (1-37)] (X1-EERECNTATCATQRLANFLVHSSNNFGPILPPTNVGSNTY-NH2; disulfide 5-10) | 0.09 nM | 
2 | CC(C)C[C@H](NC(=O)[C@H](CC(N)=O)NC(=O)[C@H](CCC(N)=O)NC(=O)[C@H](CO)NC(=O)[C@H](CO)NC(=O)[C@H](CCCNC(=N)N)NC(=O)[C@@H](NC(=O)[C@H](CC(C)C)NC(=O)[C@H](Cc1ccccc1)NC(=O)[C@H](CC(N)=O)NC(=O)[C@H](C)NC(=O)[C@H](CC(C)C)NC(=O)[C@H](CCCNC(=N)N)NC(=O)[C@H](CCC(N)=O)NC(=O)[C@@H](NC(=O)[C@H](C)NC(=O)[C@@H]1CSSC[C@H](NC(=O)[C@H](CCC(=O)O)NC(=O)[C@H](CCCNC(=N)N)NC(=O)[C@H](CCC(=O)O)NC(=O)[C@H](CCC(=O)O)NC(=O)CCCCCCCCCCCCCCCCCCC(=O)O)C(=O)N[C@@H](CCC(N)=O)C(=O)N[C@@H]([C@@H](C)O)C(=O)N[C@@H](C)C(=O)N[C@@H]([C@@H](C)O)C(=O)N1)[C@@H](C)O)C(C)C)C(=O)NCC(=O)N1CCC[C@H]1C(=O)N[C@H](C(=O)N[C@@H](CC(C)C)C(=O)N1CCC[C@H]1C(=O)N1CCC[C@H]1C(=O)N[C@H](C(=O)N[C@@H](CC(N)=O)C(=O)N[C@H](C(=O)NCC(=O)N[C@@H](CO)C(=O)N[C@@H](CC(N)=O)C(=O)N[C@H](C(=O)N[C@@H](Cc1ccc(O)cc1)C(N)=O)[C@@H](C)O)C(C)C)[C@@H](C)O)C(C)C [Example 35, N-alpha-(19-carboxynonadecanoyl)-Glu-Glu-Arg-[Glu1,Gln3,Arg18,Gln21,Leu23,Val26]-pramlintide (1-37)] ({C20 diacid}-EERECQTATCATQRLANFLVRSSQNLGPVLPPTNVGSNTY-NH2; disulfide 5-10; C-terminus assumed) |  | 0.09 nM
3 | CC(C)C[C@H](NC(=O)[C@H](CC(N)=O)NC(=O)[C@H](CCC(N)=O)NC(=O)[C@H](CO)NC(=O)[C@H](CO)NC(=O)[C@H](CCCNC(=N)N)NC(=O)[C@@H](NC(=O)[C@H](CC(C)C)NC(=O)[C@H](Cc1ccccc1)NC(=O)[C@H](CC(N)=O)NC(=O)[C@H](C)NC(=O)[C@H](CC(C)C)NC(=O)[C@H](CCCNC(=N)N)NC(=O)[C@H](CCC(N)=O)NC(=O)[C@@H](NC(=O)[C@H](C)NC(=O)[C@@H]1CSSC[C@H](NC(=O)[C@H](CCC(=O)O)NC(=O)[C@H](CCC(=O)O)NC(=O)[C@H](CCC(=O)O)NC(=O)[C@H](CCC(=O)O)NC(=O)CCCCCCCCCCCCCCCCCCC(=O)O)C(=O)N[C@@H](CCC(N)=O)C(=O)N[C@@H]([C@@H](C)O)C(=O)N[C@@H](C)C(=O)N[C@@H]([C@@H](C)O)C(=O)N1)[C@@H](C)O)C(C)C)C(=O)NCC(=O)N1CCC[C@H]1C(=O)N[C@H](C(=O)N[C@@H](CC(C)C)C(=O)N1CCC[C@H]1C(=O)N1CCC[C@H]1C(=O)N[C@H](C(=O)N[C@@H](CC(N)=O)C(=O)N[C@H](C(=O)NCC(=O)N[C@@H](CO)C(=O)N[C@@H](CC(N)=O)C(=O)N[C@H](C(=O)N[C@@H](Cc1ccc(O)cc1)C(N)=O)[C@@H](C)O)C(C)C)[C@@H](C)O)C(C)C [Example 37, N-alpha-(19-carboxynonadecanoyl)-Glu-Glu-Glu-[Glu1,Gln3,Arg18,Gln21,Leu23,Val26]-pramlintide (1-37)] ({C20 diacid}-EEEECQTATCATQRLANFLVRSSQNLGPVLPPTNVGSNTY-NH2; disulfide 5-10) | 2 nM | 
4 | CC[C@H](C)[C@H](NC(=O)[C@@H]1CCCN1C(=O)CNC(=O)[C@H](Cc1ccccc1)NC(=O)[C@H](CC(N)=O)NC(=O)[C@H](CC(N)=O)NC(=O)[C@H](CO)NC(=O)[C@H](CO)NC(=O)[C@H](Cc1c[nH]cn1)NC(=O)[C@@H](NC(=O)[C@H](CC(C)C)NC(=O)[C@H](Cc1ccccc1)NC(=O)[C@H](CC(N)=O)NC(=O)[C@H](C)NC(=O)[C@H](CC(C)C)NC(=O)[C@H](CCCNC(=N)N)NC(=O)[C@H](CCC(N)=O)NC(=O)[C@@H](NC(=O)[C@H](C)NC(=O)[C@@H]1CSSC[C@H](NC(=O)[C@H](CCC(=O)O)NC(=O)[C@H](CCCNC(=N)N)NC(=O)[C@H](CCC(=O)O)NC(=O)[C@H](CCC(=O)O)NC(=O)CC[C@H](NC(=O)CCCCCCCCCCCCCCCCCCC(=O)O)C(=O)O)C(=O)N[C@@H](CC(N)=O)C(=O)N[C@@H]([C@@H](C)O)C(=O)N[C@@H](C)C(=O)N[C@@H]([C@@H](C)O)C(=O)N1)[C@@H](C)O)C(C)C)C(=O)N[C@@H](CC(C)C)C(=O)N1CCC[C@H]1C(=O)N1CCC[C@H]1C(=O)N[C@H](C(=O)N[C@@H](CC(N)=O)C(=O)N[C@H](C(=O)NCC(=O)N[C@@H](CO)C(=O)N[C@@H](CC(N)=O)C(=O)N[C@H](C(=O)N[C@@H](Cc1ccc(O)cc1)C(N)=O)[C@@H](C)O)C(C)C)[C@@H](C)O [Example 38, N-alpha-[(S)-4-carboxy-4-(19-carboxynonadecanoylamino)butyryl]-Glu-Glu-Arg-[Glu1]-pramlintide (1-37)] ({C20 diacid-γGlu}-EERECNTATCATQRLANFLVHSSNNFGPILPPTNVGSNTY-NH2; disulfide 5-10; C-terminus assumed) | 0.3 nM | 
5 | CC[C@H](C)[C@H](NC(=O)[C@@H]1CCCN1C(=O)CNC(=O)[C@H](Cc1ccccc1)NC(=O)[C@H](CC(N)=O)NC(=O)[C@H](CC(N)=O)NC(=O)[C@H](CO)NC(=O)[C@H](CO)NC(=O)[C@H](Cc1c[nH]cn1)NC(=O)[C@@H](NC(=O)[C@H](CC(C)C)NC(=O)[C@H](Cc1ccccc1)NC(=O)[C@H](CC(N)=O)NC(=O)[C@H](C)NC(=O)[C@H](CC(C)C)NC(=O)[C@H](CCCNC(=N)N)NC(=O)[C@H](CCC(N)=O)NC(=O)[C@@H](NC(=O)[C@H](C)NC(=O)[C@@H]1CSSC[C@H](NC(=O)[C@H](CCC(=O)O)NC(=O)[C@H](CCCNC(=N)N)NC(=O)[C@H](CCC(=O)O)NC(=O)[C@H](CCC(=O)O)NC(=O)CCCCCCCCCCCCCCCCC(=O)O)C(=O)N[C@@H](CC(N)=O)C(=O)N[C@@H]([C@@H](C)O)C(=O)N[C@@H](C)C(=O)N[C@@H]([C@@H](C)O)C(=O)N1)[C@@H](C)O)C(C)C)C(=O)N[C@@H](CC(C)C)C(=O)N1CCC[C@H]1C(=O)N1CCC[C@H]1C(=O)N[C@H](C(=O)N[C@@H](CC(N)=O)C(=O)N[C@H](C(=O)NCC(=O)N[C@@H](CO)C(=O)N[C@@H](CC(N)=O)C(=O)N[C@H](C(=O)N[C@@H](Cc1ccc(O)cc1)C(N)=O)[C@@H](C)O)C(C)C)[C@@H](C)O [Example 41, N-alpha-(17-carboxyheptadecanoyl)-Glu-Glu-Arg-[Glu1]pramlintide (1-37)] ({C18 diacid}-EERECNTATCATQRLANFLVHSSNNFGPILPPTNVGSNTY-NH2; disulfide 5-10; C-terminus assumed) | 0.06 nM | 
6 | CC[C@H](C)[C@H](NC(=O)[C@@H]1CCCN1C(=O)CNC(=O)[C@H](Cc1ccccc1)NC(=O)[C@H](CC(N)=O)NC(=O)[C@H](CC(N)=O)NC(=O)[C@H](CO)NC(=O)[C@H](CO)NC(=O)[C@H](Cc1c[nH]cn1)NC(=O)[C@@H](NC(=O)[C@H](CC(C)C)NC(=O)[C@H](Cc1ccccc1)NC(=O)[C@H](CC(N)=O)NC(=O)[C@H](C)NC(=O)[C@H](CC(C)C)NC(=O)[C@H](CCCNC(=N)N)NC(=O)[C@H](CCC(N)=O)NC(=O)[C@@H](NC(=O)[C@H](C)NC(=O)[C@@H]1CSSC[C@H](N)C(=O)N[C@@H](CCCCNC(=O)CC[C@H](NC(=O)CCCS(=O)(=O)NC(=O)CCCCCCCCCCCCCCCc2nnn[nH]2)C(=O)O)C(=O)N[C@@H]([C@@H](C)O)C(=O)N[C@@H](C)C(=O)N[C@@H]([C@@H](C)O)C(=O)N1)[C@@H](C)O)C(C)C)C(=O)N[C@@H](CC(C)C)C(=O)N1CCC[C@H]1C(=O)N1CCC[C@H]1C(=O)N[C@H](C(=O)N[C@@H](CC(N)=O)C(=O)N[C@H](C(=O)NCC(=O)N[C@@H](CO)C(=O)N[C@@H](CC(N)=O)C(=O)N[C@H](C(=O)N[C@@H](Cc1ccc(O)cc1)C(N)=O)[C@@H](C)O)C(C)C)[C@@H](C)O [Example 42, N-epsilon3-{4-carboxy-4-[4-(16-1H-tetrazol-5-ylhexadecanoylsulfamoyl)butyrylamino]butyryl}-[Lys3]-pramlintide (2-37)] (H-CK([γGlu-X1])TATCATQRLANFLVHSSNNFGPILPPTNVGSNTY-NH2; disulfide 1-6; N-terminus and C-terminus assumed) |  | 0.04 nM

From US20100222269A1, “IMPROVED DERIVATIVES OF AMYLIN” (priority 2007, published 2010)
